Laboratory results taken from the supplement of paper PMC10307832.

What was measured:
Experiment in all cases: relative viability (nuclei count vs DMSO), 5 days (fraction); higher = more cells survive
[1] = compound: CC1=C(C=C(C=C1)NC(=O)C2=CC(=CC=C2)C(C)(C)C#N)NC3=CC4=C(C=C3)N=CN(C4=O)C [AZ628] + CC(=O)c1c(C)c2cnc(Nc3ccc(N4CCNCC4)cn3)nc2n(C2CCCC2)c1=O [Palbociclib] (partner 0.5 µM)
Summary of the method: (§1)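 Relative viability divides the nuclei count in treated wells by that in vehicle wells. Lung cancer cell lines were seeded in 1536-well plates, dosed by pin tool the next day, and fixed and stained after 5 days in one step with final 0.05% Triton X-100, 1% formaldehyde and 1 ug/ml Hoechst. Dosing was a single drug or a fixed anchor-drug dose plus five library-drug doses (not always all listed) in √10 steps, and values are medians of duplicate plates imaged at 4×.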

[2] = compound: CC1=C(C=C(C=C1)NC(=O)C2=CC(=CC=C2)C(C)(C)C#N)NC3=CC4=C(C=C3)N=CN(C4=O)C [AZ628] + C[C@]1(O)C[C@@H](c2nc(-c3ccc4ccc(-c5ccccc5)nc4c3)c3c(N)nccn32)C1 [Linsitinib] (partner 1 µM)
Summary of the method: as §1

[3] = compound: CC1=C(C=C(C=C1)NC(=O)C2=CC(=CC=C2)C(C)(C)C#N)NC3=CC4=C(C=C3)N=CN(C4=O)C [AZ628] + O=C(CCCCCCC(=O)Nc1ccccc1)NO [Vorinostat] (partner 1 µM)
Summary of the method: as §1

[4] = compound: C[As](C)SC[C@H](NC(=O)CC[C@H](N)C(=O)O)C(=O)NCC(=O)O [Darinaparsin] + C[C@]1(O)C[C@@H](c2nc(-c3ccc4ccc(-c5ccccc5)nc4c3)c3c(N)nccn32)C1 [Linsitinib] (partner 1 µM)
Summary of the method: as §1

Cell Line	relative viability ([1]; first compound 0.08 µM)	relative viability ([1]; first compound 0.253 µM)	relative viability ([1]; first compound 0.8 µM)	relative viability ([1]; first compound 2.53 µM)	relative viability ([1]; first compound 8 µM)	relative viability ([2]; first compound 0.08 µM)	relative viability ([2]; first compound 0.253 µM)	relative viability ([2]; first compound 0.8 µM)	relative viability ([2]; first compound 2.53 µM)	relative viability ([2]; first compound 8 µM)	relative viability ([3]; first compound 0.08 µM)	relative viability ([3]; first compound 0.253 µM)	relative viability ([3]; first compound 0.8 µM)	relative viability ([3]; first compound 2.53 µM)	relative viability ([3]; first compound 8 µM)	relative viability ([4]; first compound 0.08 µM)	relative viability ([4]; first compound 0.8 µM)	relative viability ([4]; first compound 2.53 µM)	relative viability ([4]; first compound 8 µM)
NCI-H2405	0.4	0.4	0.347	0.35	0.353	0.463	0.646	0.477	0.387	0.409	0.884	0.8	0.69	0.707	0.586	1.01	0.91	0.812	0.887
NCI-H2023	0.45	0.381	0.239	0.406	0.153	0.723	0.677	0.72	0.758	0.358	0.825	0.61	0.542	0.636	0.405	0.7	0.669	0.604	0.858
PC-3 [JPC-3]	0.505	0.583	0.583	0.597	0.6	0.893	0.971	1.01	1.04	0.952	1.15	0.7	0.891	0.793	0.709	0.961	0.955	1.06	1.05
LXF-289	0.617	0.658	0.592	0.621	0.44	1.02	0.949	0.932	0.92	0.589	0.817	0.755	0.701	0.71	0.473	0.986	0.995	0.796	1.04
NCI-H1437	0.317	0.297	0.274	0.425	0.379	0.966	0.846	0.958	0.779	0.848	0.834	0.765	0.752	0.829	0.776	1.52	1.14	0.888	1.29
NCI-H838	0.214	0.205	0.203	0.224	0.192	0.995	0.977	1.11	0.896	0.883	0.753	0.72	0.677	0.722	0.718	1.28	0.962	0.997	1.24
NCI-H650	0.366	0.425	0.475	0.545	0.374	1.09	0.911	1.25	0.952	0.78	0.454	0.63	0.554	0.673	0.44	1.26	0.9	0.801	0.871
LK-2	0.911	0.849	0.412	0.736	0.366	0.694	0.458	0.437	0.527	0.235	0.272	0.244	0.396	0.275	0.222	0.486	0.459	0.658	0.637
NCI-H520	0.21	0.224	0.197	0.254	0.199	1.08	1.03	0.872	1.01	0.62	0.684	0.628	0.702	0.81	0.716	1.02	1.08	0.863	0.985
H3255	0.284	0.297	0.309	0.326	0.328	0.965	0.859	0.965	0.968	0.737	0.838	0.781	0.846	0.87	0.824	0.995	0.96	0.86	1.16
PC-14	0.521	0.517	0.343	0.455	0.219	0.946	0.862	0.946	0.981	0.703	0.762	0.745	0.632	0.677	0.232	1.04	0.94	0.896	1.09
HCC-78	0.478	0.454	0.516	0.53	0.449	0.704	0.524	0.479	0.499	0.518	0.523	0.439	0.465	0.565	0.457	0.502	0.56	0.588	0.424
CAL-12T	0.473	0.304	0.209	0.232	0.161	0.788	0.677	0.585	0.679	0.357	0.802	0.634	0.643	0.522	0.417	1.08	0.757	0.686	0.956
NCI-H3122	0.159	0.144	0.142	0.144	0.137	0.931	0.83	0.686	0.701	0.388	0.932	0.921	0.737	0.768	0.496	1.1	1.08	1.08	1.03
NCI-H661	0.418	0.378	0.368	0.366	0.386	0.474	0.523	0.49	0.517	0.443	0.831	0.916	0.818	0.778	0.743	0.558	0.569	0.526	0.593
NCI-H727	0.553	–	–	0.517	0.363	0.194	0.2	0.225	0.282	0.201	1.25	–	–	0.891	0.352	0.3	0.225	0.319	0.354
NCI-H1666	0.678	0.666	0.683	0.71	0.685	0.809	0.57	0.551	0.753	0.553	1.07	0.953	0.995	0.764	0.916	0.996	0.884	0.994	0.931

Cell Line	relative viability ([1]; first compound 0.08 µM)	relative viability ([1]; first compound 0.253 µM)	relative viability ([1]; first compound 0.8 µM)	relative viability ([1]; first compound 2.53 µM)	relative viability ([1]; first compound 8 µM)	relative viability ([2]; first compound 0.08 µM)	relative viability ([2]; first compound 0.253 µM)	relative viability ([2]; first compound 0.8 µM)	relative viability ([2]; first compound 2.53 µM)	relative viability ([2]; first compound 8 µM)	relative viability ([3]; first compound 0.08 µM)	relative viability ([3]; first compound 0.253 µM)	relative viability ([3]; first compound 0.8 µM)	relative viability ([3]; first compound 2.53 µM)	relative viability ([3]; first compound 8 µM)	relative viability ([4]; first compound 0.08 µM)	relative viability ([4]; first compound 0.8 µM)	relative viability ([4]; first compound 2.53 µM)	relative viability ([4]; first compound 8 µM)
COR-L23	0.327	0.293	0.257	0.268	0.187	1.05	0.886	0.986	0.81	0.492	0.528	0.426	0.491	0.473	0.321	1.24	0.886	0.859	1.02
NCI-H460	0.148	0.168	0.147	0.17	0.123	0.74	0.694	0.658	0.523	0.154	0.728	0.715	0.644	0.641	0.24	0.814	1.04	0.713	1.22
SK-MES-1	0.361	0.343	0.246	0.324	0.328	0.98	1.06	0.939	1.03	0.637	1.07	1.18	1.04	1.1	0.572	1.15	0.99	0.812	1.25
LC-2-ad	0.473	0.51	0.424	0.468	0.373	0.882	0.829	0.883	0.832	0.486	0.78	0.865	0.796	0.74	0.656	0.98	0.808	0.812	0.843
BEN	0.487	0.489	0.46	0.51	0.452	1.1	0.864	0.793	0.903	0.772	0.615	0.513	0.571	0.557	0.589	0.947	1.02	0.764	1.11
NCI-H1651	0.544	0.536	0.529	0.562	0.625	1.16	1.08	1.12	1.05	0.989	0.584	0.491	0.573	0.559	0.561	1.21	1.08	0.938	1.13
EKVX	0.393	0.374	0.478	0.452	0.3	1.18	0.922	1	1.03	0.824	0.952	0.698	0.848	0.579	0.53	1.33	0.902	0.969	1.2
COR-L 105	0.368	0.368	0.429	0.344	0.453	0.933	0.897	0.934	0.857	0.651	0.881	0.886	0.796	0.794	0.654	0.992	0.844	–	0.978
HCC-15	0.708	0.718	0.656	0.677	0.421	0.918	0.799	0.704	0.695	0.414	0.867	0.728	0.693	0.61	0.348	0.878	0.881	0.78	1.01
SK-LU-1	0.284	0.286	0.349	0.314	0.288	0.728	1	0.907	1.07	0.901	0.595	0.896	0.726	0.758	0.611	1.35	0.976	1.07	1.35
LCLC-103H	0.478	0.48	0.44	0.314	0.417	1.02	1.15	1.15	1.07	1.04	0.727	0.804	0.776	0.712	0.728	1.12	1.05	0.936	1.24
RERF-LC-KJ	1.07	1.09	0.994	1.13	0.843	0.799	0.874	0.841	0.855	0.7	0.779	0.735	0.741	0.677	0.656	1.03	0.979	0.876	0.946
NCI-H2087	0.194	0.157	0.165	0.149	0.173	0.818	0.613	0.728	0.65	0.343	1.02	0.723	0.743	0.527	0.148	1.07	0.997	1.01	0.94
LOU-NH91	0.535	0.526	0.547	0.557	0.539	0.962	1	1.07	0.964	0.66	1	0.911	0.904	0.794	0.675	0.962	0.92	0.952	0.946
201T	0.368	0.358	0.381	0.39	0.366	1.06	0.978	1.07	1	0.998	1.06	1.02	1.08	1.04	1.08	1.04	1.03	1.04	1.06
UMC-11	0.405	0.299	0.347	0.324	0.292	1.02	1.12	1.03	0.976	1.02	0.442	0.336	0.361	0.328	0.36	1.04	1.07	0.862	1.32
NCI-H1975	0.504	0.485	0.548	0.534	0.233	0.908	0.949	0.895	0.904	0.647	0.62	0.668	0.679	0.658	0.42	1.11	1.01	0.944	1.26
